Test results taken from patent US9340577B2, “HLA binding motifs and peptides and their uses” (priority 1992, dated 2016).
pIC50: −log10 of the molar value. “And” between values parts separate entries of the source, which are not always exact repeats. Identical values can stand only once. No end group written: not given here.

Experiments:
[1] = biological target: HLA-A*0201 (HLA-A2.1) (Homo sapiens, UniProt P04439, D140Y/D185E/D98H/E176V/E277Q/G131W/G231S/I119V/I121R/I166T/I218V/L300P/L318F/N151K/N90K/P208A/P217A/Q86G/Q94H/R138H/R169H/T345S); experiment: biochemical; assay type: binding
[2] = system: HLA-A24; assay type: binding, human
[3] = biological target: A2.1 HLA molecules (Homo sapiens, UniProt P04439, D140Y/D185E/D98H/E176V/E277Q/G131W/G231S/I119V/I121R/I166T/I218V/L300P/L318F/N151K/N90K/P208A/P217A/Q86G/Q94H/R138H/R169H/T345S); assay type: binding; parameters: A*0201 / A2.1 Binding / A2 Bind. / A2 / A2.1 (binding capacity): scale not given here
[4] = biological target: A*2601 (Homo sapiens, UniProt P04439, A114D/A173T/A270S/D101N/D185E/E277Q/E87N/F33Y/G231S/I121R/I218V/K168Q/L180W/L300P/L318F/P208A/P217A/Q86R/Q94H/R138Q/S129P/T187R/T323A/T345S/V100A/V358M); experiment: biochemical; assay type: binding
[5] = biological target: A*2902 (Homo sapiens, UniProt P04439, A270S/D101N/D185E/E176V/E277Q/E87Q/F33T/G231S/H175R/I121M/I218V/I322F/K168Q/L300P/L318F/M331R/P208A/P217A/Q86L/T323A/T345S/V100A/V358M); experiment: biochemical; assay type: binding
[6] = biological target: A*3002 (Homo sapiens, UniProt P04439, D101N/D140H/D185E/E176R/F33S/G80R/H175R/K168Q/Q94H/R138E/R41S/V100E); experiment: biochemical; assay type: binding
[7] = biological target: HLA-A1 (A*0101) (Homo sapiens, UniProt P04439, A114D/A174V/A182V/D101N/D185E/E176A/E190D/L180R/Q94H/R68K/S129P/T187R/V100A/V91M/W191G); experiment: biochemical; assay type: binding

Sequence of A*3002 (P04439 whole entry, looked up, the tested form may be a part, stated change not applied): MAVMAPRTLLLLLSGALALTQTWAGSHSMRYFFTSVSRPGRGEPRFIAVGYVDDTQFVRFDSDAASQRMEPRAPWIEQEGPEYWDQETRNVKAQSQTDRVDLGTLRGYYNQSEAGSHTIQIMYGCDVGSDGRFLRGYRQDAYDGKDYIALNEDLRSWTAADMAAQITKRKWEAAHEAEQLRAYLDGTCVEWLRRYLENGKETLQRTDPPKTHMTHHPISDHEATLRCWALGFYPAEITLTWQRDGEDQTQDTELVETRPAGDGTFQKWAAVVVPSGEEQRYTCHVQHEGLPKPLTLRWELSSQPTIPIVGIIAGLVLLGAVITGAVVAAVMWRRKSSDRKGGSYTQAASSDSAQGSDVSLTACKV

| Sequence | binding to HLA-A2.1 (column 3; no allele head shown for these rows) [1] | binding to HLA-A24 (column 6; no allele head shown for these rows) [2] | further results |
| --- | --- | --- | --- |
| ALAETSYVKV | 0.017 | 0 | A2 [3]: 0.0150; A2 Bind. [3]: 0.0150 |
| ALREEEEGV | 0.0056 | 0 | A2 Bind. [3]: 0.0210 |
| ATCVSHRGLY [Peptide 1580.22] | – | – | pIC50 [4]: 6.31; pIC50 [5]: 5.38 |
| ATTDLTIVY [Peptide 1549.51] | – | – | pIC50 [6]: 6.96; pIC50 [4]: 6.79 |
| CILESLFRA | 0.073 | 0 | A2 Bind. [3]: 0.0460 |
| CQDKILTHY [Peptide 86.0141] | – | – | pIC50 [6]: 6.73; pIC50 [7]: 6.04; pIC50 [4]: 5.05 |
| CTDKILEHY [Peptide 1593.14] | – | – | pIC50 [7]: 6.96; pIC50 [4]: < 4.70; pIC50 [5]: < 4.70 |
| DSVQILVGY [Peptide 86.0147] | – | – | pIC50 [7]: 5.71; pIC50 [4]: 8.55 |
| EAQQEALGL | 0 | <0.0002 | – |
| EIWEELSVMEV | 0.013 | 0 | – |
| EMLESVIKN | – | – | A2.1 [1]: <0.0002; A24 [2]: 0 |
| ETDEEITGYLY [Peptide 9012.0180] | – | – | pIC50 [7]: 8.19; pIC50 [4]: 7.57; pIC50 [5]: 6.56 |
| ETSYVKVLEY | 0 | 0 | – |
| FLIIVLVMIAM | 0.0041 and 0.0031 | 0.0011 | – |
| FLLLKYRA | 0.0007 | 0 | – |
| FLWGPRALA | 0.042 and 0.027 | 0 | A2 [3]: 0.0420; A2 Bind. [3]: 0.0420 |
| GASAFPTTI | 0 | <0.0002 | – |

| Sequence | binding to HLA-A2.1 (column 3; no allele head shown for these rows) [1] | binding to HLA-A24 (column 6; no allele head shown for these rows) [2] | further results |
| --- | --- | --- | --- |
| GASSFSTTI | 0 | 0.0002 | – |
| GASSLPTTM | 0 | 0.0010 | – |
| GLLGDNQIM | 0.0054 | 0.0002 | A2.1 [1]: 0.0051 |
| GLVCVQAA | 0.0008 | 0 | – |
| GLVCVQAAT | 0.0007 | 0.0001 | – |
| GTDQATPGPAY [Peptide 9012.0160] | – | – | pIC50 [6]: 6.63; pIC50 [4]: 5.41 |
| ILESLFRA | 0.0017 | 0.0011 | – |
| ILLWQPIPV | 1.4 | 0 | – |
| IMPKTGFLI | 0.0035 | 3.2 | – |
| IMPKTGFLII | 0.0007 | 0.050 | – |
| ISDYRHYCY [Peptide 1571.26] | – | – | pIC50 [7]: 8.03; pIC50 [4]: < 4.70; pIC50 [5]: 8.00 |
| IVEGQVDYY [Peptide 1580.29] | – | – | pIC50 [7]: 6.73; pIC50 [4]: < 4.70; pIC50 [5]: < 4.70 |
| KAEMLESVI | 0 | <0.0002 | – |
| KAEMLESVL | 0 | 0 | – |
| KMVELVHFL | 0.13 | 0.0043 | A2.1 [1]: 0.16; A2 Bind. [3]: 0.1600 |
| KMVELVHFLL | 0.071 | 0.0008 | A2 [3]: 0.2200; A2 Bind. [3]: 0.1100 |
